According to paper PMC6770071, “XIAP as a Target of New Small Organic Natural Molecules Inducing Human Cancer Cell Death” (Cancers, 2019):
In brackets after ≈: the same amount, converted by molar mass. Where two headings read alike, the source gives them in different places.

How the values were obtained:
MCF7 cells [1] = assay: MTT cell viability assay, MCF7 cells; type: cell-based, human; conditions: for IC50: Homo sapiens, MTT; for loss of cell viability (MTT) with simultaneous 50 µM Z-VAD-(OMe)-FMK: MCF7, 6 h, gibbilimbol B/eriopodol A 30 µg/mL, erioquinol 10 µg/mL
Method: (§1) Human U373 glioma, MCF7 breast cancer, A549 lung cancer and PC-3 prostate cancer cells were grown in Dulbecco’s Modified Eagle Medium (DMEM), supplemented with 10% foetal bovine serum, 2 mM glutamine, 100 U/mL penicillin/streptomycin, at 37 °C in a humidified atmosphere containing 5% CO2 (logarithmic growth phase, routine passages every 3 days). The human breast epithelial cell line MCF10 was cultured in DMEM/F12 Ham’s Mixture supplemented with 5% horse serum, epithelial growth factor 20 ng/mL, insulin 10 μg/mL, hydrocortisone 0.5 mg/mL, cholera toxin 100 ng/mL, and 100 U/mL penicillin/streptomycin. HUVEC were grown in EGM-2 Endothelial Cell Growth Medium-2 BulletKit (Lonza, Basel, Switzerland), according to the manufacturer’s protocol.
(§2) U373, MCF7, A549, PC-3, HUVEC, and MCF10 cell viability was determined by MTT assay using published protocols. MTT absorbance was quantified spectrophotometrically using a Glomax Multi Detection System microplate reader (Promega, Milano, Italy).
Statistical significance of raw data between the groups in each experiment was evaluated using unpaired Student’s t-test (single comparisons) or one-way ANOVA followed by the Newman-Keuls post-test (multiple comparisons). The IC50 and Emax concentration were determined by non-linear regression curve analysis of the concentration-effect responses. Potency values among concentration-response curves were compared with the F-test. Data belonging from different experiments were represented and averaged in the same graph. The GraphPad Prism software package (GraphPad Software, San Diego, CA, USA) was used. The results were expressed as means ± standard error of mean (SEM) of the indicated n values.

[2] = test system: human umbilical vein endothelial cells (HUVEC); assay: MTT cell viability assay, HUVEC; type: cell-based; conditions: 24 h
Method: as §1, with “HUVEC were grown in EGM-2 Endothelial Cell Growth Medium-2 BulletKit (Lonza, Basel, Switzerland), according to the manufacturer’s protocol.” left out
as §2
(§3) Statistical significance of raw data between the groups in each experiment was evaluated using unpaired Student’s t-test (single comparisons) or one-way ANOVA followed by the Newman-Keuls post-test (multiple comparisons). The IC50 and Emax concentration were determined by non-linear regression curve analysis of the concentration-effect responses. […] The results were expressed as means ± standard error of mean (SEM) of the indicated n values.

MCF10 cells = assay: MTT cell viability assay, MCF10 cells; type: cell-based; conditions: Homo sapiens, 24 h, non-tumourigenic breast MCF10 cells
Method: as §1, with “HUVEC were grown in EGM-2 Endothelial Cell Growth Medium-2 BulletKit (Lonza, Basel, Switzerland), according to the manufacturer’s protocol.” left out
as §2, §3

MCF7 cells [3] = assay: TUNEL assay; type: cell-based, human; conditions: MCF7, 12 h; gibbilimbol B/eriopodol A 30 µg/mL, erioquinol 10 µg/mL
Method: Using published protocols, MCF7 or U373 cells cultured in 120-mm coverslips were fixed in 4% paraformaldehyde in 0.1 M phosphate buffer (PB), pH 7.4, for 10 min. The TUNEL method (DeadEnd Fluorometric TUNEL System, Promega) was used to assay apoptosis, according to the manufacturer’s protocol. DAPI (nuclei detection) staining was also performed.

caspase 9 and 7 = assay: Cleaved-caspase 9 and 7 western blot / immunofluorescence in MCF7 cells; type: cell-based, human; conditions: gibbilimbol B/eriopodol A 30 µg/mL, erioquinol 10 µg/mL; for cleaved-caspase 7 staining, immunofluorescence: MCF7, 3 and 6 h; for caspase activation, western blot: MCF7, 3 h and 6 h
Method: (§4) Using published protocols, MCF7 or U373 cells cultured in 120-mm coverslips were fixed in 4% paraformaldehyde in 0.1 M PB, pH 7.4, for 10 min. Cells were pre-incubated for 1 h min with 5% of normal goat serum (Life Technologies, Monza, Italy) in 0.1 M PB (pH 7.4) containing 0.1% Triton X-100, before overnight incubation with the rabbit monoclonal anti-cleaved caspase 7 (Cell Signaling Technology, Danvers, MA, USA). In double-label immunofluorescence experiments, the mouse monoclonal anti-cytochrome c primary antibody (Cell Signaling Technology) was used in conjunction with the rabbit monoclonal primary antibody directed to COX IV (Cell Signaling Technology). For fluorescence detection, coverslips were stained with the appropriate Alexa Fluor secondary antibodies (Life Technologies) and mounted on glass slides in a ProLong Gold Antifade Mountant (Life Technologies). DAPI and/or fluorescein phalloidin (cytoskeleton detection) staining was also used. Cells were analysed with a DMI4000 B automated inverted microscope equipped with a DCF310 digital camera (Leica Microsystems, Wetzlar, Germany). When indicated, confocal imaging was performed with a TCS SP8 System (Leica Microsystems). Image acquisitions were controlled by the Leica Application Suite X.
Using published protocols, MCF7 and MCF10 cells were homogenised in RIPA lysis buffer, supplemented with a cocktail of protease inhibitors (cOmplete; Roche Diagnostics, Milano, Italy). Equal amounts of proteins were separated by 4–20% SDS-polyacrylamide gel electrophoresis (Criterion TGX Stain-free precast gels and Criterion Cell system; Bio-Rad, Hercules, CA, USA) and transferred onto nitrocellulose membrane using a Bio-Rad Trans-Blot Turbo System. When indicated, the membranes were probed using the rabbit monoclonal anti-cleaved caspase 7 and anti-XIAP (Cell Signaling Technology) primary antibodies. After the incubation with the appropriate horseradish-peroxidase-conjugated secondary antibody (Cell Signaling Technology), bands were visualised using the Clarity Western ECL substrate with a ChemiDoc MP imaging system (Bio-Rad). To monitor for potential artefacts in loading and transfer among samples in different lanes, the blots were routinely treated with the Restore Western Blot Stripping Buffer (ThermoFisher Scientific) and re-probed with the goat anti-Lactate dehydrogenase (LDH)-A (Santa Cruz Biotechnology) and the mouse anti-vinculin primary antibodies. The stain-free gel was used as loading control as well. When appropriated, bands were quantified for densitometry using the Bio-Rad Image Lab software.

MCF7 cells [4] = assay: TMRM mitochondrial membrane potential analysis, MCF7 cells; type: cell-based, human; conditions: gibbilimbol B/eriopodol A 30 µg/mL, erioquinol 10 µg/mL; for TMRM fluorescence (mitochondria membrane potential): MCF7, increasing time; for time to full response of TMRM fluorescence decrease: MCF7
Method: (§5) Using published protocols, mitochondria of MCF7 and U373 cells were labeled using TMRM, a voltage-sensitive cationic lipophilic dye, partitioning and accumulating in the mitochondrial matrix based upon the Nernst equation. After treatments, cells were trypsinised, counted and incubated with 100 nM TMRM for 30 min at 37 °C. Fluorescence was measured by using a Glomax Multi Detection System microplate reader (Promega), excitation wavelength: 525 nm; emission wavelength: 580–640 nm). After background subtraction, the data were normalised on cell number.

U373 cells [5] = assay: TMRM mitochondrial membrane potential analysis, U373 cells; type: cell-based, human; conditions: U373, increasing time; gibbilimbol B/eriopodol A 30 µg/mL, erioquinol 10 µg/mL
Method: as §5

MCF7 cells [6] = assay: Confocal co-localisation of cytochrome c with COX IV, MCF7 cells; type: cell-based, human; conditions: MCF7, 3 h; gibbilimbol B/eriopodol A 30 µg/mL, erioquinol 10 µg/mL
Method: as §4

U373 cells [7] = assay: Confocal co-localisation of cytochrome c with COX IV, U373 cells; type: cell-based, human; conditions: U373, 3 h; gibbilimbol B/eriopodol A 30 µg/mL, erioquinol 10 µg/mL
Method: as §4

U373 cells [8] = assay: ROS detection with DCFH-DA, U373 cells; type: cell-based, human; conditions: U373, 6 h; gibbilimbol B/eriopodol A 30 µg/mL, erioquinol 10 µg/mL
Method: MCF7 or U373 cells cultured in 120-mm coverslips were exposed to 30 µM DCFH-DA (0.1 M PB, pH 7.4) and fixed in 4% paraformaldehyde for 20 min. For fluorescence detection, coverslips were mounted on glass slides and observed with a laser-scanning confocal microscope (TCS SP8 System and Application suite X, Leica Microsystems). DAPI and fluorescein phalloidin (nuclei and cytoskeleton detection, respectively) staining was also used.

[9] = MCF7, 24 h (Table 1), read-out: IC50 (μg/mL) MCF7 Cells
[10] = MCF7, 6 h exposure (time-response), read-out: IC50
[11] = MCF7, 12 h exposure (time-response), read-out: IC50

SMILES: CCCCCC/C=C\CCC1(O)C=CC(=O)C=C1 [Erioquinol, (Z)-4-(dec-3′-enyl)-4-hydroxycyclohexa-2,5-dien-1-one]
- IC50 (MCF7 cells [1]; [9]): 2.63 µg/mL (≈ 10.6 µM)
- IC50 (MCF7 cells [1]; [10]): 14.7 µg/mL (≈ 59.3 µM)
- IC50 (MCF7 cells [1]; [11]): 4.25 µg/mL (≈ 17.1 µM)
- IC50 (MCF7 cells [1]; MCF7, 24 h exposure (time-response), read-out: IC50): 1.93 µg/mL (≈ 7.77 µM)
- loss of cell viability (MTT) with simultaneous 50 µM Z-VAD-(OMe)-FMK (MCF7 cells [1]): did not affect
- concentration-dependent inhibition of MTT absorbance with 50 µM necrostatin-1 and 10 µM ferrostatin-1 (MCF7 cells [1]; MCF7, 24 h, 2 h pre-treatment with inhibitors): did not change
- IC50 [2]: 0.36 µg/mL (≈ 1.45 µM)
- IC50 (MCF10 cells): 1.7 µg/mL (≈ 6.84 µM)
- TUNEL staining (DNA fragmentation) (MCF7 cells [3]): DNA fragmented cells were few
- cleaved-caspase 7 staining, immunofluorescence (caspase 9 and 7): positive cells were absent
- caspase activation, western blot (caspase 9 and 7): did not display any sign of caspase 7 activity
- TMRM fluorescence (mitochondria membrane potential) (MCF7 cells [4]): comparable decrease in TMRM fluorescence vs. control
- time to full response of TMRM fluorescence decrease (MCF7 cells [4]): ≤ 1 h
- TMRM fluorescence (mitochondria membrane potential) (U373 cells [5]): comparable decrease in TMRM fluorescence vs. control
- subcellular location of cytochrome c (MCF7 cells [6]): release of cytochrome c
- subcellular location of cytochrome c (U373 cells [7]): release of cytochrome c
- ROS (DCFH-DA staining) (U373 cells [8]): marked accumulation of ROS

SMILES: CCCCCC/C=C/CCc1ccc(O)cc1 [Gibbilimbol B, (E)-4-(dec-3′-enyl)phenol]
- IC50 (MCF7 cells [1]; [9]): 16.4 µg/mL (≈ 70.8 µM)
- IC50 (MCF7 cells [1]; [10]): 20.3 µg/mL (≈ 87.4 µM)
- IC50 (MCF7 cells [1]; [11]): 27.4 µg/mL (≈ 118 µM)
- loss of cell viability (MTT) with simultaneous 50 µM Z-VAD-(OMe)-FMK (MCF7 cells [1]): significantly inhibited
- IC50 [2]: 11.5 µg/mL (≈ 49.4 µM)
- IC50 (MCF10 cells): 17.1 µg/mL (≈ 73.6 µM)
- TUNEL staining (DNA fragmentation) (MCF7 cells [3]): inter-nucleosomal degradation of genomic DNA typical of late apoptotic cells
- cleaved-caspase 7 staining, immunofluorescence (caspase 9 and 7): intensive cleaved-caspase 7 staining
- caspase activation, western blot (caspase 9 and 7): activation of caspase 9 and 7
- TMRM fluorescence (mitochondria membrane potential) (MCF7 cells [4]): comparable decrease in TMRM fluorescence vs. control
- time to full response of TMRM fluorescence decrease (MCF7 cells [4]): ≤ 1 h
- TMRM fluorescence (mitochondria membrane potential) (U373 cells [5]): comparable decrease in TMRM fluorescence vs. control
- subcellular location of cytochrome c (MCF7 cells [6]): release of cytochrome c
- subcellular location of cytochrome c (U373 cells [7]): release of cytochrome c
- ROS (DCFH-DA staining) (U373 cells [8]): absent
